In one data set the test system is Tyrosinase. The data set can be described thus: RNA extraction and quantitative PCR assay, tyrosinase expression. Format: cell-based. Conditions: B6F10 melanocytes, α-MSH plus carvone, vs α-MSH control cells. As for the experimental part: (§1) B6F10 melanocytes were cultured in DMEM containing 10% FBS at 37° C. under 5% CO2, and then the cells were dispensed into a 6-well plate at a density of 1×10^5 cells/well and attached thereto. As normal cells, cells not treated with α-MSH that induces melanogenesis were used, and as control cells, cells treated with α-MSH (100 nM) were used. The cells cultured under the above conditions were treated with α-MSH (100 nM) plus carvone (100 μM) and cultured for 48 hours. […] Using the cDNA obtained through reverse transcription as a template and using the [NT] flanking sequences of the gene cDNA to be amplified as primers, quantitative PCR was performed using iQ SYBR green supermix (Bio-Rad) and CFX ConnectTM Real-Time PCR Detection System (Bio-Rad). [table]

The next data set has as its system B6F10 melanocytes. Kind of data set: Measurement of melanin production in cells (α-MSH-induced melanogenesis). Conditions: α-MSH (100 nM) plus carvone (100 μM), 48 hours. Format: cell-based. As for the experimental part:
B16F10 melanocytes were purchased from ATCC (Manassas, Va., USA), and the purchased cells were cultured using DMEM (Dulbecco's Modified Eagle's Media) containing 10% FBS (fetal bovine serum) in an incubator at 37° C. under 5% CO2. B6F10 melanocytes were cultured in DMEM containing 10% FBS at 37° C. under 5% CO2, and then the cells were dispensed into a 6-well plate at a density of 1×10^5 cells/well and attached thereto. […] After washing twice with PBS (phosphate buffered saline), the cells were harvested. The harvested cells were centrifuged at 1,000 rpm for 5 minutes, and then the color of the pellet was visually observed. Thereafter, the cell pellet was lysed by adding 200 μL of 1N NaOH solution containing 10% DMSO, and then the absorbance at 400 nm was measured with a microplate reader.

For data set [1] the following is noted: oral, rats; cited from earlier work.
The conditions of data set [2]: in water and ethanol; cited from earlier work.
For data set [3] the following is noted: transdermal; cited from earlier work.
The test system of data set [4] is MITF (microphthalmia transcription factor). The data set can be described thus: RNA extraction and quantitative PCR assay, MITF expression. Format: cell-based. Conditions: B6F10 melanocytes, α-MSH plus carvone, vs α-MSH control cells. The procedure: as §1

The text below walks through data of US20220370317A1, “COMPOSITION FOR SKIN WHITENING, COMPRISING CARVONE OR SALT THEREOF AS ACTIVE INGREDIENT” (BOTANICSENS, priority 2019, published 2022).

Read-outs that look alike come from different tables or passages of the source.

In the case of `C=C(C)C1CC=C(C)C(=O)C1` (stereo not shown) [carvone], in the data set with Tyrosinase, the “decrease of tyrosinase expression compared to control cells” value amounted to 31%. Moreover, in the data set with B6F10 melanocytes (absorbance at 400 nm, vs α-MSH control cells), the “decrease of melanin content compared to control cells” value turned out to be 29%. In addition, the “pellet color of cells, visually observed” value with B6F10 melanocytes (compared to control cells treated with only α-MSH) is reported as “significantly paler”. Moreover, the figures for the LD50 in data set [1] and in data set [3] were 1,640 mg/kg and ≥ 4,000 mg/kg, respectively. The solubility result in data set [2] is listed as “well soluble”. Moreover, the “decrease of MITF expression compared to control cells” value in data set [4] is 36%.
